Patent publication US9630958B2, “Triazine compounds” (Sphaera Pharma Pte. Ltd., priority 2012, dated 2017)

Tests used:
[1] = biological target: T1, PI3 Kinase alpha (p110 alpha/p85 alpha) (Homo sapiens, UniProt P42336); assay: PI3K TR-FRET assay (Transcreener ADP2); format: biochemical; conditions: for inhibition at 1 µM: 1 uM compound, read-out: PI3K % Inhib@1 uM; for IC50: PI3K alpha, 1 μM ATP, 50 μM PIP2
T1 construct: purchased Invitrogen
Method: Enzymatic activity of PI3K alpha was measured using Time resolved Fluorescence resonance energy transfer (TR-FRET) assay. This assay utilizes ADP detection as a means to screen inhibitor potency of compounds. The Transcreener ADP2 TR-FRET Red Assay is a competitive immunoassay for ADP with a far-red, TR-FRET readout and it has been used for this purpose. The assay can be used for any enzyme class that produces ADP (Kinases, ATPases). It consists of ADP HiLyte647 Tracer, ADP^2 Antibody-Tb conjugate (800 nM), stop & detect buffer, 5 mM ATP, 5 mM ADP. The ADP HiLyte647 Tracer is bound to an ADP^2 Antibody-Tb conjugate. The excitation of the terbium complex in the UV range results in energy transfer to the tracer and emission at a higher wavelength after a time delay ADP produced by the target enzyme displaces the tracer which causes decrease in TR-FRET.
The reaction buffer used for the assay was 50 mM HEPES, pH 7.4.3 mM MgCl2, 0.05% CHAPS, 50 mM NaCl, 2 mM DTT, 1 mM EGTA. PI3 Kinase alpha (p110 alpha/p85 alpha) and PIP2 Substrate (diC8,) were procured from Invitrogen and Echelon respectively.
Kinase reactions were performed in 10 μl volume in Corning white 384 well plates. […] Reaction was initiated by the addition of substrate (PIP2) and ATP at final conc. of 50 μM and 1 μM ATP in the reaction respectively. Kinase reactions were allowed to proceed for 1 hour at room temperature before a 10 μL preparation of Transcreener ADP detection mix was added. Plate was incubated at room temperature for 1 hr. ADP-ATP standard curves were also prepared.
(§1) FRET signal was read in Envision Multilabel Reader with the following filters:
Excitation-330 nm and Emission 615 nm (donor) and 665 nm (acceptor). TR FRET Ratio (Fluorescence 665 nm/Fluorescence 615 nm) was converted to amount of product formed using the standard curve generated. Percentage inhibition was calculated and plotted against the concentration of inhibitor and data was fit to Non Linear Regression curve fit (sigmoidal dose response curve with variable slope-four parameters) using Graph pad prism 5 and IC50 was calculated for the compound.

Recombinant mTOR (FRAP1) = biological target: T2, Recombinant mTOR (FRAP1) (Homo sapiens, UniProt P42345); assay: mTOR in vitro kinase assay (TR-FRET, phosphorylation of GFP-4E-BP1); format: biochemical; conditions: for IC50: 8 μM ATP, 400 nM GFP-4E-BP1; for inhibition at 1 µM: 1 uM compound, read-out: mTOR % Inhib@1 uM
T2 construct: purchased Invitrogen
T2 sequence (P42345 1360-2549 limits assumed): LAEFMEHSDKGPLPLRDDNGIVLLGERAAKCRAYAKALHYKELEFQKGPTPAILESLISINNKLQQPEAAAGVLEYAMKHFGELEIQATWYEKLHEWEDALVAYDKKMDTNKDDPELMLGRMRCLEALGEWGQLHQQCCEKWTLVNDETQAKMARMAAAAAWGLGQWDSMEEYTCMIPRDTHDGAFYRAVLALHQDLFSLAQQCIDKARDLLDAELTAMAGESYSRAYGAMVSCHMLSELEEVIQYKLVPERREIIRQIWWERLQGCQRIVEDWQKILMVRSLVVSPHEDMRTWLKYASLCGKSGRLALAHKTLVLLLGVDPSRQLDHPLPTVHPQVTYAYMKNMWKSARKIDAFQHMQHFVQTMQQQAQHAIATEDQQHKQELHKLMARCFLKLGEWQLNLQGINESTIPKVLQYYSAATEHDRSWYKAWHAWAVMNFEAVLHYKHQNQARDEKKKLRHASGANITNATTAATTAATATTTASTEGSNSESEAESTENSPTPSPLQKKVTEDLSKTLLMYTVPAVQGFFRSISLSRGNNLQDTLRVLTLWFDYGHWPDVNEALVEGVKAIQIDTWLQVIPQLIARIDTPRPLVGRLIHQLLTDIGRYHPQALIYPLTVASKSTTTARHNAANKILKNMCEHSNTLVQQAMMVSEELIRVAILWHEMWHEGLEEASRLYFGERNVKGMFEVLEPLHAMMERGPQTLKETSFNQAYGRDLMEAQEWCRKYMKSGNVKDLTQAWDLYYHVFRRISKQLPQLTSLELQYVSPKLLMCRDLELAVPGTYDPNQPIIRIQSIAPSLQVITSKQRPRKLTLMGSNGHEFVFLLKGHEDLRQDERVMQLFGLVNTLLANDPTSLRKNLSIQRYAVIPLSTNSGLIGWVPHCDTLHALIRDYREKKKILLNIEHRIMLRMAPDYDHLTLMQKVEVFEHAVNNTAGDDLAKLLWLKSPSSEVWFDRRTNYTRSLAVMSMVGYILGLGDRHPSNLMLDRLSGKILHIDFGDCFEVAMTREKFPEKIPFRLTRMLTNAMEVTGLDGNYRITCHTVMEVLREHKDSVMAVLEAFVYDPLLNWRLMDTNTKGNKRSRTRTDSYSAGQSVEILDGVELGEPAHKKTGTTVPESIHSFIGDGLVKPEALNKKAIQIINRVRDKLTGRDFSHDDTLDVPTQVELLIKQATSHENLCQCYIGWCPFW
Method: Compounds were evaluated for mTOR activity using an in vitro kinase assay.
mTOR activity is measured in vitro by determining the level of phosphorylation of the protein substrate 4EBP-1. The phosphorylation of GFP-4E-BP1 at threonine residue is recognized by Ab Tb-Anti-p4EBP1, which results in time resolved fluorescence energy transfer (TR-FRET) between GFP and Terbium in the Ab-Protein complex.
Recombinant mTOR (FRAP1), Kinase reaction buffer, GFP-4E-BP1 and LanthaScreen Tb-anti-4E-BP1 (pThr46), TR FRET dilution buffer, Kinase Quench Buffer were obtained from Invitrogen.
Kinase reactions were performed in 10 μl volume in Corning white 384 well plates. […] The reaction was initiated by the addition of substrate (GFP-4E-BP1) and ATP at a final conc. of 400 nM and 8 μM ATP in the reaction respectively. The kinase reaction was allowed to proceed for 1 hour at room temperature before a 10 μL preparation of kinase quench buffer and Tb-labeled Antibody in TR-FRET dilution buffer was added. The final concentration of the antibody in the assay well is 2 nM and the final concentration of EDTA is 10 mM. The plate was incubated at room temperature for 1 h.
as §1
Excitation-330 nm and Emission 486 nm (donor) and 520 nm (acceptor).
TR FRET Ratio (Fluorescence 520 nm/Fluorescence 486 nm) was plotted against the concentration of inhibitor and data was fit to Non Linear Regression curve fit (sigmoidal dose response curve with variable slope-four parameters) using Graph Pad Prism 5.

T1 sequence (P42336 whole entry): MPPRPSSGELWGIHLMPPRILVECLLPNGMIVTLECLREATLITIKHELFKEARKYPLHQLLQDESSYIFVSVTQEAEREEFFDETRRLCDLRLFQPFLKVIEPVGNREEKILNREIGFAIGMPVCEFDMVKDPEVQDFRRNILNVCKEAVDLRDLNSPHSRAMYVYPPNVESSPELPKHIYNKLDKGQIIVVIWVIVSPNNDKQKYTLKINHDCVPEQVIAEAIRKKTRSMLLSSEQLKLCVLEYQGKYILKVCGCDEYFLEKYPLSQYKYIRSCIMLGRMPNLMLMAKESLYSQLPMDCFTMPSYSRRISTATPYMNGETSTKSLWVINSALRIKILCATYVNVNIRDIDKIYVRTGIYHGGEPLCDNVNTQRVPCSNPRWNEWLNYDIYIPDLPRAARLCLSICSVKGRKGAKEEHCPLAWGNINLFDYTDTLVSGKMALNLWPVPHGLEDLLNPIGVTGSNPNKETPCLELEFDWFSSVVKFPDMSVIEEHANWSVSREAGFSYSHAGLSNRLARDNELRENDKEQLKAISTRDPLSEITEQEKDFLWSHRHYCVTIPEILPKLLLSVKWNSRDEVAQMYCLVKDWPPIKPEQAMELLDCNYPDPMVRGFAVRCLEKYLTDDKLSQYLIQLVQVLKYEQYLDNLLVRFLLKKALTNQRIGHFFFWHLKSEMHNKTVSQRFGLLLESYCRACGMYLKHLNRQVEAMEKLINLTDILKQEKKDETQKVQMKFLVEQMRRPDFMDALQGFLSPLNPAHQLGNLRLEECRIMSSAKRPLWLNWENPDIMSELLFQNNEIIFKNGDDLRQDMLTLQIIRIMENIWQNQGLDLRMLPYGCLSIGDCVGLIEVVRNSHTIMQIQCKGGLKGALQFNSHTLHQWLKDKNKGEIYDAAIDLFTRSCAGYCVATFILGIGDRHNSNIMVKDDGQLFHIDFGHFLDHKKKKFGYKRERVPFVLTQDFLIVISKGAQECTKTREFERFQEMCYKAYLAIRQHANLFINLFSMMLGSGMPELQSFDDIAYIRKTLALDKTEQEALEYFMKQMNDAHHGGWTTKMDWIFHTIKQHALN
T1 sequence (P27986 whole entry partner): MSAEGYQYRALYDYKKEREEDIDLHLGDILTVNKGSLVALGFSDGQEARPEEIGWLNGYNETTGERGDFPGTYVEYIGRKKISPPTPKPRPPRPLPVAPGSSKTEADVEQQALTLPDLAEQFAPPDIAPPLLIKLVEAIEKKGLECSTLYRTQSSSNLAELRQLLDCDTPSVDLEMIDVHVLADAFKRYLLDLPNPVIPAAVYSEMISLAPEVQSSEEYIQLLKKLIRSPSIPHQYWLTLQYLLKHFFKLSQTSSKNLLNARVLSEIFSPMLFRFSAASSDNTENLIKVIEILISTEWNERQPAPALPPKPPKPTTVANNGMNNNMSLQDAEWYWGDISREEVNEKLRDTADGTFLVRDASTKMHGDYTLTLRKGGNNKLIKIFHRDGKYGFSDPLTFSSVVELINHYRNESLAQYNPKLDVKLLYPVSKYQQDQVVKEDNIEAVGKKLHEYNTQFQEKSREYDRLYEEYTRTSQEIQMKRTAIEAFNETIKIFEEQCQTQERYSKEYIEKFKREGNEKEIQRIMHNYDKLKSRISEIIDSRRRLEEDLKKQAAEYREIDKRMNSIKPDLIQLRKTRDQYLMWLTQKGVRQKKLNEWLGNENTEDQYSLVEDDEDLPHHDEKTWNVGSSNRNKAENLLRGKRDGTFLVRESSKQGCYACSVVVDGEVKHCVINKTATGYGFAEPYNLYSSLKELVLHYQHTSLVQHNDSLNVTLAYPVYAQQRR

Row | Structure (SMILES) | inhibition at 1 µM [1] [%] | IC50 (Recombinant mTOR (FRAP1)) [µM] | IC50 [1] [µM] | inhibition at 1 µM (Recombinant mTOR (FRAP1)) [%]
1 | C[C@H]1COCCN1c1nc(O[C@H]2CC[C@H](C(=O)N(C)C)CC2)nc(-c2ccc(CO)cc2)n1 [Compound 10203, (1S,4r)-4-((4-(4-(hydroxymethyl)phenyl)-6-((S)-3-methylmorpholino)-1,3,5-triazin-2-yl)oxy)-N,N-dimethylcyclohexane-1-carboxamide] | < 50 | > 3 |  | 
2 | C[C@@H]1CN(c2nc(Oc3ccc(C(=O)N(C)C)cc3)nc(-c3cnc(N)s3)n2)CCO1 [Compound 10073, (R)-4-((4-(2-Aminothiazol-5-yl)-6-(2-methylmorpholino)-1,3,5-triazin-2-yl)oxy)-N,N-dimethylbenzamide] | > 50 | < 1 | < 1 | > 50
3 | CN(C)C(=O)c1ccc(Oc2nc(-c3cnc(N)s3)nc(N3CCCCC3)n2)cc1 [Compound 10119, 4-(4-(2-aminothiazol-5-yl)-6-(piperidin-1-yl)-1,3,5-triazin-2-yloxy)-N,N-dimethylbenzamide] |  |  | > 10 | < 50
4 | C[C@@H]1CN(c2nc(Oc3ccc(C(=O)N(C)C)cc3F)nc(-c3ccc(N)nc3)n2)[C@@H](C)CO1 [Compound 10098, 4-((4-(6-Aminopyridin-3-yl)-6-((2R,5S)-2,5-dimethylmorpholino)-1,3,5-triazin-2-yl)oxy)-3-fluoro-N,N-dimethylbenzamide] | > 50 | < 1 | < 1 | 
5 | CN(C)C(=O)c1ccc(Oc2nc(-c3cnc(N)s3)nc(N3CCO[C@@H]4CCCC[C@H]43)n2)cc1 [Compound 10131, 4-(4-(2-aminothiazol-5-yl)-6-((4aR,8aR)-octahydrobenzo[b][1,4]oxazin-4-yl)-1,3,5-triazin-2-yloxy)-N,N-dimethylbenzamide] | < 50 |  |  | < 50
6 | C[C@@H]1CN(c2nc(Oc3ccc(C(=O)N(C)C)cc3)nc(-c3cnc(N)s3)n2)[C@@H](C)CO1 [Compound 10076, 4-((4-(2-Aminothiazol-5-yl)-6-((2R,5S)-2,5-dimethylmorpholino)-1,3,5-triazin-2-yl)oxy)-N,N-dimethylbenzamide] | < 50 | < 1 | > 1 | > 50
7 | CN(C)C(=O)c1ccc(Oc2nc(-c3ccc(N)nc3)nc(N3[C@@H]4CC[C@H]3COC4)n2)cc1 [Compound 10050, 4-(4-(6-aminopyridin-3-yl)-6-((1R,5S)-3-oxa-8-azabicyclo[3.2.1]octan-8-yl)-1,3,5-triazin-2-yloxy)-N,N-dimethylbenzamide] |  | < 1 | > 1 | > 50
8 | C[C@H]1COCCN1c1nc(Oc2ccc(C(=O)N(C)C)cc2)nc(-c2cnc(N(C)C)s2)n1 [Compound 10143, 4-(4-(2-(dimethylamino)thiazol-5-yl)-6-((S)-3-methylmorpholino)-1,3,5-triazin-2-yloxy)-N,N-dimethylbenzamide] | < 50 | > 1 | > 1 | 
9 | C[C@H]1COCCN1c1nc(Oc2ccc(C(=O)N(C)C)cc2)nc(-c2cnc(NC(=O)Nc3cccnc3)s2)n1 [Compound 10092] | < 50 | < 1 | < 1 | 
10 | Cc1cc(Oc2nc(-c3ccc(N)nc3)nc(N3CCOCC3)n2)ccc1C(=O)N(C)C [Compound 10181, 4-((4-(6-aminopyridin-3-yl)-6-morpholino-1,3,5-triazin-2-yl)oxy)-N,N,2-trimethylbenzamide] |  | < 1 | < 1 | > 50
11 | CNC(=O)Nc1ncc(-c2nc(NC)nc(N3CCOC[C@@H]3C)n2)s1 [Compound 10135, 1-methyl-3-(5-(4-(methylamino)-6-((S)-3-methylmorpholino)-1,3,5-triazin-2-yl)thiazol-2-yl)urea] | < 50 |  |  | < 50
12 | C[C@H]1CN(c2nc(Oc3ccc(C(=O)N(C)C)cc3F)nc(-c3cnc4[nH]ccc4c3)n2)[C@@H](C)CO1 [Compound 10104, 4-((4-((2S,5S)-2,5-dimethylmorpholino)-6-(1H-pyrrolo[2,3-b]pyridine-5-yl)-1,3,5-triazin-2-yl)oxy)-3-fluoro-N,N-dimethylbenzamide] |  | < 1 | < 1 | 
13 | C[C@H]1COCCN1c1nc(OC2CCN(C(=O)N(C)C)CC2)nc(-c2cnc(N)s2)n1 [Compound 10137, 4-(4-(2-aminothiazol-5-yl)-6-((S)-3-methylmorpholino)-1,3,5-triazin-2-yloxy)-N,N-dimethylpiperidine-1-carboxamide] |  | < 1 | < 1 | > 50
14 | C[C@H]1COCCN1c1nc(Oc2ccc(C(=O)N(C)C)cc2F)nc(-c2ccc(N)nc2)n1 [Compound 10058, (S)-4-((4-(6-Aminopyridin-3-yl)-6-(3-methylmorpholino)-1,3,5-triazin-2-yl)oxy)-3-fluoro-N,N-dimethylbenzamide] |  | < 1 | < 1 | 
15 | CC1OCCN(c2nc(Oc3ccc(C(=O)N(C)C)cc3F)nc(-c3cnc(N)s3)n2)C1C (stereo not drawn) [Compound 10159, 4-(4-(2-aminothiazol-5-yl)-6-(2,3-dimethylmorpholino)-1,3,5-triazin-2-yloxy)-3-fluoro-N,N-dimethylbenzamide] |  | < 1 | < 1 | 
16 | CC1COCCN1c1nc(Oc2ccc(C(=O)N(C)C)cc2)nc(-c2cnc(N)s2)n1 (stereo not drawn) [Compound 10006, 4-(4-(2-aminothiazol-5-yl)-6-(3-methylmorpholino)-1,3,5-triazin-2-yloxy)-N,N-dimethylbenzamide] | > 50 |  | > 1 | < 50
17 | C[C@@H]1CN(c2nc(Oc3ccc(C(=O)N(C)C)cc3)nc(-c3cnc(N)s3)n2)C[C@H](C)O1 [Compound 10122, 4-(4-(2-aminothiazol-5-yl)-6-((2S,6R)-2,6-dimethylmorpholino)-1,3,5-triazin-2-yloxy)-N,N-dimethylbenzamide] | < 50 | > 1 |  | > 50
18 | CC[C@H]1COCCN1c1nc(Oc2ccc(C(=O)N(C)C)cc2)nc(-c2cnc(N)s2)n1 [Compound 10081, (S)-4-((4-(2-Aminothiazol-5-yl)-6-(3-ethylmorpholino)-1,3,5-triazin-2-yl)oxy)-N,N-dimethylbenzamide] | > 50 | < 1 | < 1 | > 50
19 | C[C@@H]1CN(c2nc(Oc3ccc(C(=O)N(C)C)cc3F)nc(-c3cnc(N)s3)n2)[C@@H](C)CO1 [Compound 10057, 4-((4-(2-Aminothiazol-5-yl)-6-((2R,5S)-2,5-dimethylmorpholino)-1,3,5-triazin-2-yl)oxy)-3-fluoro-N,N-dimethylbenzamide] | < 50 | < 1 |  | 
20 | C[C@H]1COCCN1c1nc(Oc2ccc(C(=O)N(C)C)cc2)nc(-c2cnc(N)cc2C(F)(F)F)n1 [Compound 10066, (S)-4-((4-(6-Amino-4-(trifluoromethyl)pyridine-3-yl)-6-(3-methylmorpholino)-1,3,5-triazin-2-yl)oxy)-N,N-dimethylbenzamide] |  | < 1 | < 1 | 
21 | C[C@H]1COCCN1c1nc(Oc2ccc(C(=O)N(C)C)cc2)nc(-c2cnc(N)nc2)n1 [Compound 10126, 4-(4-(2-aminopyrimidin-5-yl)-6-((S)-3-methylmorpholino)-1,3,5-triazin-2-yloxy)-N,N-dimethylbenzamide] |  | < 1 | < 1 | > 50
